Test results reported in patent US20100298141A1, “SUBSTITUTED PYRIDINE N-OXIDE HERBICIDES” (E. I. DU PONT DE NEMOURS AND COMPANY, priority 2007, published 2010).

How the values were obtained:
[1] = test system: pigweed; assay: Test C pre-/postemergence test; assay type: in vivo, Amaranthus retroflexus
Procedure, shortened: (§1)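 Compounds in a non-phytotoxic solvent with surfactant applied preemergence to seeded pots and, at the same time, postemergence to plants 2–18 cm tall (1- to 4-leaf stage). Paddy tests: pots flooded to 3 cm, compound applied into the water, depth held throughout.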

[2] = test system: wheat; assay: Test A pre-/postemergence greenhouse test; assay type: in vivo, Triticum aestivum; settings: for Plant response rating, Wheat: 0 to 100 scale where 0 is no effect and 100 is complete control; for Wheat plant response rating: 0 to 100 scale
Procedure, shortened: (§2)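 Test compounds in non-phytotoxic solvent with surfactant were applied as a preemergence soil spray to seeded loam/sand pots and, concurrently, postemergence to plants at 2–10 cm, one- to two-leaf stage. About ten days in greenhouse, then injury visually rated against untreated controls.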

[3] = test system: morningglory; assay: Test A pre-/postemergence greenhouse test; assay type: in vivo, Ipomoea spp.; settings: for Plant response rating, Morningglory: 0 to 100 scale where 0 is no effect and 100 is complete control; for Morningglory plant response rating: 0 to 100 scale
Procedure, shortened: as §2

[4] = test system: soybean; assay: Test C pre-/postemergence test; assay type: in vivo, Glycine max
Procedure, shortened: as §1

[5] = test system: crabgrass; assay: Test A pre-/postemergence greenhouse test; assay type: in vivo, Digitaria sanguinalis; settings: for Plant response rating, Crabgrass, Large: 0 to 100 scale where 0 is no effect and 100 is complete control; for Crabgrass, Large plant response rating: 0 to 100 scale
Procedure, shortened: as §2

[6] = test system: barnyardgrass; assay: Test C flooded paddy test; assay type: in vivo, Echinochloa crus-galli; settings: Flood
Procedure, shortened: (§3)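 Test compounds are applied straight into paddy water held 3 cm above the soil surface, with that flood maintained for the whole test. After 13 to 15 days in the greenhouse, each species is scored visually relative to controls.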

[7] = test system: wheat; assay: Test C pre-/postemergence test; assay type: in vivo, Triticum aestivum
Procedure, shortened: as §1

[8] = test system: umbrella sedge; assay: Test C flooded paddy test; assay type: in vivo, Cyperus difformis; settings: Flood
Procedure, shortened: as §3

[9] = test system: corn; assay: Test A pre-/postemergence greenhouse test; assay type: in vivo, Zea mays; settings: for Plant response rating, Corn: 0 to 100 scale where 0 is no effect and 100 is complete control; for Corn plant response rating: 0 to 100 scale
Procedure, shortened: as §2

[10] = test system: common (oilseed) sunflower; assay: Test C pre-/postemergence test; assay type: in vivo, Helianthus annuus; settings: for Sunflower plant response rating: preemergence, scale 0 (no effect) to 100 (complete control)
Procedure, shortened: as §1

[11] = test system: catchweed bedstraw; assay: Test C pre-/postemergence test; assay type: in vivo, Galium aparine
Procedure, shortened: as §1

[12] = test system: Italian ryegrass; assay: Test C pre-/postemergence test; assay type: in vivo, Lolium multiflorum
Procedure, shortened: as §1

[13] = test system: bermudagrass; assay: Test C pre-/postemergence test; assay type: in vivo, Cynodon dactylon
Procedure, shortened: as §1

[14] = test system: morningglory; assay: Test C pre-/postemergence test; assay type: in vivo, Ipomoea coccinea
Procedure, shortened: as §1

[15] = test system: Goosegrass; assay: Test C pre-/postemergence test; assay type: in vivo, Eleusin indica
Procedure, shortened: as §1

[16] = test system: yellow nutsedge; assay: Test C pre-/postemergence test; assay type: in vivo, Cyperus esculentus
Procedure, shortened: as §1

[17] = test system: giant foxtail; assay: Test A pre-/postemergence greenhouse test; assay type: in vivo, Setaria faberi; settings: for Plant response rating, Foxtail, Giant: 0 to 100 scale where 0 is no effect and 100 is complete control; for Foxtail, Giant plant response rating: 0 to 100 scale
Procedure, shortened: as §2

[18] = 62 g ai/ha, Preemergence, scale 0 to 100
[19] = 125 g ai/ha, preemergence, scale 0 (no effect) to 100 (complete control)
[20] = Preemergence, 31 g ai/ha, scale 0 to 100 (0 no effect, 100 complete control)
[21] = preemergence, 250 g ai/ha, scale 0 (no effect) to 100 (complete control)
[22] = Postemergence, 500 g ai/ha, 0 is no effect, 100 is complete control
[23] = Preemergence, 125 g ai/ha, 0 no effect, 100 complete control
[24] = 31 g ai/ha, scale 0 to 100 (0 no effect, 100 complete control)
[25] = 125 g ai/ha, scale 0 to 100, 0 no effect, 100 complete control, 13 to 15 days
[26] = 250 g ai/ha, scale 0 to 100, 0 no effect, 100 complete control, 13 to 15 days

Cn1nc(C(F)(F)F)c(C[S+]([O-])c2ccc(F)c[n+]2[O-])c1Cl (centres unmarked) [Compound 54]
Pigweed plant response rating [1, 18]: 100
Pigweed plant response rating [1, 19]: 100
Plant response rating, Pigweed [1, 20]: 0
Pigweed plant response rating [1, 21]: 100
Plant response rating, Wheat ([2]; Postemergence, 125 g ai/ha): 30
Wheat plant response rating [2, 22]: 50
Wheat plant response rating [2, 23]: 10
Plant response rating, Wheat ([2]; Preemergence, 500 g ai/ha): 70
Plant response rating, Morningglory ([3]; Postemergence, 125 g ai/ha): 60
Morningglory plant response rating [3, 22]: 90
Morningglory plant response rating [3, 23]: 10
Plant response rating, Morningglory ([3]; Preemergence, 500 g ai/ha): 80
Plant response rating, Soybean [4, 20]: 0
Soybean plant response rating [4, 21]: 60
Plant response rating, Crabgrass, Large ([5]; Postemergence, 125 g ai/ha): 20
Crabgrass, Large plant response rating [5, 22]: 80
Crabgrass, Large plant response rating [5, 23]: 80
Plant response rating, Crabgrass, Large ([5]; Preemergence, 500 g ai/ha): 90
Plant response rating, Barnyardgrass [6, 24]: 0
Plant response rating, Barnyardgrass ([6]; 62 g ai/ha, scale 0 to 100, 0 no effect, 100 complete control, 13 to 15 days): 20
Plant response rating, Barnyardgrass [6, 25]: 65
Plant response rating, Barnyardgrass [6, 26]: 80
Wheat plant response rating [7, 19]: 40
Plant response rating, Wheat [7, 20]: 0
Plant response rating, Sedge, Umbrella [8, 24]: 0
Plant response rating, Sedge, Umbrella [8, 25]: 60
Plant response rating, Sedge, Umbrella [8, 26]: 100
Plant response rating, Corn ([9]; Postemergence, 125 g ai/ha): 0
Corn plant response rating [9, 22]: 60
Corn plant response rating [9, 23]: 20
Plant response rating, Corn ([9]; Preemergence, 500 g ai/ha): 70
Sunflower plant response rating ([10]; 125 g ai/ha): 0
Plant response rating, Sunflower [10, 20]: 0
Sunflower plant response rating ([10]; 250 g ai/ha): 0
Galium plant response rating [11, 18]: 0
Galium plant response rating [11, 19]: 85
Plant response rating, Galium [11, 20]: 0
Galium plant response rating [11, 21]: 85
Ryegrass, Italian plant response rating [12, 18]: 45
Ryegrass, Italian plant response rating [12, 19]: 70
Plant response rating, Ryegrass, Italian [12, 20]: 0
Ryegrass, Italian plant response rating [12, 21]: 98
Bermudagrass plant response rating ([13]; 62 g ai/ha, Preemergence, scale 0 to 100 (0 no effect, 100 complete control)): 100
Bermudagrass plant response rating [13, 19]: 100
Plant response rating, Bermudagrass [13, 20]: 98
Bermudagrass plant response rating [13, 21]: 100
Morningglory plant response rating [14, 18]: 100
Morningglory plant response rating [14, 19]: 100
Plant response rating, Morningglory [14, 20]: 100
Morningglory plant response rating [14, 21]: 100
Goosegrass plant response rating [15, 18]: 100
Goosegrass plant response rating [15, 19]: 100
Plant response rating, Goosegrass [15, 20]: 95
Goosegrass plant response rating [15, 21]: 100
Nutsedge, Yellow plant response rating [16, 18]: 65
Nutsedge, Yellow plant response rating [16, 19]: 100
Plant response rating, Nutsedge, Yellow [16, 20]: 0
Nutsedge, Yellow plant response rating [16, 21]: 100
Plant response rating, Foxtail, Giant ([17]; Postemergence, 125 g ai/ha): 60
Foxtail, Giant plant response rating [17, 22]: 80
Foxtail, Giant plant response rating [17, 23]: 80
Plant response rating, Foxtail, Giant ([17]; Preemergence, 500 g ai/ha): 90
